# Measured values reported in PubChem BioAssay (NCI).
# Several values for one entry are separate records, joined by “and”; a condition that tells them apart may be missing. Equal values may be shown once.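 Five compound concentrations were applied to cells in 96-well plates for 48 hours; endpoints were derived by simple linear interpolation of the resulting dose-response curve. GI50: concentration for 50% inhibition of growth. At the TGI there is no net growth.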
# What was measured:
# Assay in all cases: DTP human tumour cell line panel, 48 h
# U251 CNS = tested on: U251 CNS
# EKVX NSCLC = tested on: EKVX NSCLC
# 786-0 renal = tested on: 786-0 renal
# BT-549 breast = tested on: BT-549 breast
# DU-145 prostate = tested on: DU-145 prostate
# RXF 393 renal = tested on: RXF 393 renal
# SR leukemia = tested on: SR leukemia
# SK-MEL-5 melanoma = tested on: SK-MEL-5 melanoma
# SW-620 colon = tested on: SW-620 colon
# A549 NSCLC = tested on: A549 NSCLC
Compound,GI50 (U251 CNS),TGI (U251 CNS),GI50 (EKVX NSCLC),TGI (EKVX NSCLC),GI50 (786-0 renal),TGI (786-0 renal),GI50 (BT-549 breast),TGI (BT-549 breast),GI50 (DU-145 prostate),TGI (DU-145 prostate),GI50 (RXF 393 renal),TGI (RXF 393 renal),GI50 (SR leukemia),TGI (SR leukemia),GI50 (SK-MEL-5 melanoma),TGI (SK-MEL-5 melanoma),GI50 (SW-620 colon),TGI (SW-620 colon),GI50 (A549 NSCLC),TGI (A549 NSCLC)
COc1cc(OC)c(/C=C/C(=O)c2ccc(Nc3ncnc4ccccc34)cc2)c(OC)c1,686 nM,2.73 µM,1690 nM,8.99 µM,1470 nM,3.55 µM,1040 nM,3.62 µM,1450 nM,3.42 µM,488 nM,1.95 µM,142 nM,1.1 µM,426 nM,1.98 µM,403 nM,2.64 µM,0.665 µM,3.76 µM
C=C1C(=O)O[C@H]2[C@H]1CC/C(Cn1cc(Cc3c[nH]c4ccccc34)nn1)=C\CC[C@@]1(C)O[C@@H]21,1890 nM,3.63 µM,1840 nM,3.98 µM,1770 nM,3.48 µM,1410 nM,2.76 µM,1540 nM,2.88 µM,1630 nM,3.63 µM,389 nM,8.32 µM,1890 nM,3.61 µM,1740 nM,3.56 µM,8.63 µM,23.5 µM
CCCCCCCN(CCCCCCC)C(=N)c1ccnc2ccccc12,1660 nM,3.11 µM,1590 nM,3.15 µM,1550 nM,2.97 µM,1360 nM,2.74 µM,1600 nM,3.04 µM,1440 nM,2.99 µM,1010 nM,2.96 µM,1510 nM,2.96 µM,1280 nM,2.91 µM,1.77 µM,3.41 µM
CC/C=C\C[C@H](O)C/C=C1/C(=O)C=C[C@@H]1C/C=C\CCCC(=O)OC(C)C,480 nM,1.74 µM,3040 nM,11.6 µM,1900 nM,3.72 µM,1250 nM,3.51 µM,3050 nM,11.9 µM,1760 nM,3.27 µM,896 nM,5.01 µM,1170 nM,2.51 µM,572 nM,2.32 µM,2.48 µM,5.88 µM
c1ccc2cc(Cn3cc[n+](Cc4ccc5ccccc5c4)c3)ccc2c1,1500 nM,11 µM,2510 nM,15.5 µM,4400 nM,19 µM,1180 nM,3.15 µM,2830 nM,14.7 µM,1250 nM,4.72 µM,1030 nM,3.42 µM,258 nM,0.916 µM,2050 nM,13.6 µM,7.97 µM,22.9 µM
CN(C)c1ccc(C(=N)c2ccc(N(C)C)cc2)cc1,3540 nM and 3110 nM,18.9 µM and 17.7 µM,5330 nM and 5170 nM,> 100 µM,6120 nM and 8260 nM,24.4 µM and 32 µM,3770 nM and 5100 nM,28.9 µM and 29.2 µM,4140 nM and 5930 nM,> 100 µM,2930 nM and 2860 nM,12.2 µM and 19.3 µM,736 nM,5.3 µM,2740 nM and 2920 nM,10.9 µM and 13.2 µM,1950 nM and 2580 nM,20.8 µM and > 100 µM,5.1 µM and 3.95 µM,36.7 µM and > 100 µM
O=C1NC(=O)[C@@]2(CC[C@@H](O)C2)c2ccncc21,,> 100 µM,,> 100 µM,,> 100 µM,,> 100 µM,,> 100 µM,,> 100 µM,,> 100 µM,,> 100 µM,,> 100 µM,,> 100 µM
O=C(O)C(Br)C(Br)C(=O)O (stereo not given),,> 100 µM,,> 100 µM,,> 100 µM,,> 100 µM,,> 100 µM,,> 100 µM,,> 100 µM,,> 100 µM,,> 100 µM,,> 100 µM
CCOc1cc(C(=O)O)c2c(ccc3ccc(OC)c(OC)c32)c1OC,,> 100 µM,,> 100 µM,,> 100 µM,,> 100 µM,,> 100 µM,,> 100 µM,,> 100 µM,,> 100 µM,,> 100 µM,,> 100 µM
Nc1ncn(C2OC(COP(=O)(O)O)C(O)C2O)c(=O)n1 (stereo not given),,> 100 µM,,> 79 µM,,> 100 µM,,> 100 µM,,> 100 µM,,> 100 µM,,> 100 µM,,> 100 µM,,> 100 µM,,> 100 µM
Cc1cc(C(=O)Nc2cc(Oc3ccc4nc(NC(=O)C5CC5)cn4n3)ccc2C)n(C)n1,> 10000 nM,> 10 µM,> 10000 nM,> 10 µM,> 10000 nM,> 10 µM,6420 nM,> 10 µM,> 10000 nM,> 10 µM,7460 nM,> 10 µM,2260 nM,> 10 µM,> 10000 nM,> 10 µM,> 10000 nM,> 10 µM,> 10 µM,> 10 µM
COC12C=C/C(=C(/C(=O)OCCSc3ccnn3C)C(=O)CCCCCCCCC3(OC)C=C/C(=C(/C(=O)OCCSc4ccnn4C)C(=O)CCCCCCCC1)O3)O2,979 nM,3.32 µM,1150 nM,12.1 µM,1070 nM,4.12 µM,954 nM,2.83 µM,1310 nM,> 32.5 µM,665 nM,1.17 µM,886 nM,> 32.5 µM,581 nM,1.09 µM,1070 nM,5.38 µM,0.882 µM,2.66 µM
O=c1cc(-c2ccccc2)oc2ccc(OC/C(=N/O)c3ccc(F)cc3)cc12,3030 nM,43.7 µM,1970 nM,15.8 µM,8970 nM,> 50 µM,1010 nM,2.67 µM,3100 nM,15.6 µM,9990 nM,26.1 µM,2090 nM,> 50 µM,1610 nM,6.23 µM,2670 nM,32.8 µM,7.12 µM,> 50 µM
CC(CN(C)C)S(=O)(=O)c1ccc(-c2cnc(N)c(C(=O)Nc3ccccc3)n2)cc1 (stereo not given),4170 nM,30 µM,31100 nM,> 100 µM,2370 nM,15.2 µM,6430 nM,27.2 µM,4560 nM,> 49.8 µM,1520 nM,8.4 µM,1390 nM,8.53 µM,2930 nM,11.5 µM,3840 nM,19.2 µM,2.86 µM,> 46.1 µM
Clc1ccccc1[C@@H]1C[C@@H]2Cc3cc(Br)c4ccccc4c3N1O2,3650 nM,> 100 µM,23300 nM,> 100 µM,5200 nM,> 100 µM,6800 nM,> 100 µM,5590 nM,> 100 µM,1730 nM,4.92 µM,3330 nM,> 100 µM,2810 nM,15.2 µM,3690 nM,> 100 µM,4.91 µM,> 100 µM
CC(=O)NNc1nc(C)c(C(/C=C/c2ccc([N+](=O)[O-])cc2)=N/NC(N)=O)s1,,> 100 µM,,> 100 µM,,> 100 µM,,> 100 µM,,> 100 µM,,> 100 µM,,> 100 µM,,> 100 µM,,> 100 µM,,> 100 µM
C=C1C(=O)O[C@H]2[C@H]1CC/C(COC(=O)c1cn(C)c3ccccc13)=C\CC[C@@]1(C)O[C@@H]21,1420 nM,2.77 µM,962 nM,3.42 µM,1460 nM,2.88 µM,514 nM,1.99 µM,1010 nM,2.2 µM,589 nM,2.11 µM,342 nM,1.17 µM,1420 nM,2.77 µM,301 nM,1.1 µM,1.82 µM,4.23 µM
COc1ccc(OC)c(NC(=O)c2cccc(NC3=C(Cl)C(=O)N(Cc4ccccc4)C3=O)c2)c1,> 100000 nM,> 100 µM,2490 nM,4.94 µM,> 96200 nM,> 100 µM,18300 nM,> 100 µM,27800 nM,> 100 µM,> 74600 nM,> 100 µM,7800 nM,> 87.6 µM,26600 nM,87.7 µM,> 100000 nM,> 100 µM,> 100 µM,> 100 µM
COC(NC(N)=O)C(=O)O (stereo not given),,> 100 µM,,> 100 µM,,> 100 µM,,> 100 µM,,> 100 µM,,> 100 µM,,> 100 µM,,> 100 µM,,> 100 µM,,> 100 µM
CC(CN1CC(=O)NC(=O)C1)N1CC(=O)NC(=O)C1 (stereo not given),,> 750 µM,,> 750 µM,,> 750 µM,,> 750 µM,,> 750 µM,,> 750 µM,,> 750 µM,,> 750 µM,,> 750 µM,,> 750 µM
c1cc(CN2CCCNCCNCCCNCC2)ccc1CN1CCCNCCNCCCNCC1,> 100000 nM,> 100 µM,> 100000 nM,> 100 µM,> 100000 nM,> 100 µM,> 100000 nM,> 100 µM,> 100000 nM,> 100 µM,> 100000 nM,> 100 µM,> 100000 nM,> 100 µM,> 100000 nM,> 100 µM,> 100000 nM,> 100 µM,> 100 µM,> 100 µM
C=C(C)[C@@H]1C/C=C(/CO)CC[C@H]2O[C@]2(C)CC/C=C(\C)CC1,19900 nM,36.2 µM,12900 nM,36 µM,15400 nM,34.2 µM,17500 nM,34.7 µM,18100 nM,60.5 µM,18300 nM,33.4 µM,17200 nM,38.6 µM,12700 nM,25.5 µM,26300 nM,61.5 µM,16.1 µM,50.3 µM
CCCCC[C@H]1CC=C2C(=O)C=C[C@@H]2CC=CCCCC(=O)O[C@@H](CCCCC)CC=C2C(=O)C=C[C@@H]2CC=CCCCC(=O)O[C@@H](CCCCC)CC=C2C(=O)C=C[C@@H]2CC=CCCCC(=O)O1,158 nM,0.315 µM,414 nM,6.31 µM,325 nM,1.43 µM,241 nM,0.772 µM,353 nM,2.52 µM,194 nM,0.422 µM,229 nM,1.34 µM,737 nM,1.87 µM,373 nM,1.51 µM,0.529 µM,2.12 µM
O=C(O)C1CCN(Cc2oc(CO)cc(=O)c2O)C1 (stereo not given),,> 100 µM,,> 100 µM,,> 100 µM,,> 100 µM,,> 100 µM,,> 100 µM,,> 100 µM,,> 100 µM,,> 100 µM,,> 100 µM
Cc1cn(CCC(N)C(=O)O)c(=O)[nH]c1=O (stereo not given),,> 100 µM,,> 100 µM,,> 100 µM,,> 100 µM,,> 100 µM,,> 100 µM,,> 100 µM,,> 100 µM,,> 100 µM,,> 100 µM
COc1cc(-c2nn(-c3cccc(NC(=O)NCCNS(=O)(=O)c4ccc(Cl)cc4)c3)cc2-c2ccncc2)ccc1Cl,494 nM,2.09 µM,2150 nM,> 100 µM,1500 nM,5.78 µM,1230 nM,5.14 µM,956 nM,> 100 µM,307 nM,2.18 µM,466 nM,3.53 µM,493 nM,1.83 µM,524 nM,30.3 µM,1.93 µM,37.4 µM
CN(C)C(=S)/N=c1\ssc(=S)n1Cc1cccs1,,69.9 µM,,> 94.6 µM,,52.5 µM,,> 100 µM,,> 100 µM,,23.9 µM,,> 100 µM,,> 16.1 µM,,> 100 µM,,> 91.4 µM
CCn1c(-c2c(Cl)cc(O)cc2Cl)cc2c(Cl)cc(O)cc21,,17 µM,,58.5 µM,,24.8 µM,,15.5 µM,,> 100 µM,,8.03 µM,,> 100 µM,,12.5 µM,,41 µM,,44.2 µM
COc1ccc(C(C#N)=C2C=CC(=NO)C=C2)cc1,6460 nM,19.4 µM,17600 nM,32.7 µM,4950 nM,15.3 µM,14400 nM,29 µM,1920 nM,4.42 µM,7800 nM,20.5 µM,3530 nM,> 100 µM,4340 nM,17.2 µM,2090 nM,4.39 µM,16.5 µM,39.8 µM
